Experimental data taken from the supplement of paper PMC5908809.

Legend:
[1] = tested on: normal NK cells expanded with K562-aAPC; experiment: percent inhibition of viability; higher = more inhibition; conditions: 72 h, IL-2 2.5 ng/mL
Method: (§1)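 Drug sensitivity and resistance testing on K562-aAPC-expanded normal NK cells: 5 concentrations (10-fold steps over a 10,000-fold range), 72 h at 37 °C, viability by CellTiter-Glo normalised to DMSO and benzethonium chloride controls; DSS from the fitted curve.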

DERL-7 (IL-2 2.5 ng/mL) [2] = experiment: as above; conditions: 72 h
IMC-1 (IL-2 20 ng/mL) [3] = experiment: as above; conditions: 72 h
KAI3 (IL-2 2.5 ng/mL) [4] = experiment: as above; conditions: 72 h
KHYG-1 (IL-2 2.5 ng/mL) [5] = experiment: as above; conditions: 72 h
NK-92 (IL-2 2.5 ng/mL) [6] = experiment: as above; conditions: 72 h
NK-YS (IL-2 2.5 ng/mL) [7] = experiment: as above; conditions: 72 h
NKL (IL-2 2.5 ng/mL) [8] = experiment: as above; conditions: 72 h
SNK-6 (IL-2 2.5 ng/mL) [9] = experiment: as above; conditions: 72 h
YT (IL-2 2.5 ng/mL) [10] = experiment: as above; conditions: 72 h
[11] = tested on: normal primary NK cells, pool 1 (3 donors) (IL-2 2.5 ng/mL); experiment: as above; conditions: 72 h
[12] = tested on: normal primary NK cells, pool 1 (3 donors), resting (IL-2 0 ng/mL); experiment: as above; conditions: 72 h
[13] = tested on: normal primary NK cells, pool 2 (3 donors) (IL-2 2.5 ng/mL); experiment: as above; conditions: 72 h
[14] = tested on: normal primary NK cells, pool 3 (3 donors) (IL-2 2.5 ng/mL); experiment: as above; conditions: 72 h
[15] = tested on: normal NK cells expanded with K562-aAPC; experiment: drug sensitivity score (DSS) (DSS units); higher = more sensitive; extreme values may be limits of the assay; conditions: 72 h; IL-2 2.5 ng/mL
Method: as §1

DERL-7 (IL-2 2.5 ng/mL) [16] = experiment: as above; conditions: 72 h
IMC-1 (IL-2 20 ng/mL) [17] = experiment: as above; conditions: 72 h
KAI3 (IL-2 2.5 ng/mL) [18] = experiment: as above; conditions: 72 h
KHYG-1 (IL-2 2.5 ng/mL) [19] = experiment: as above; conditions: 72 h
NK-92 (IL-2 2.5 ng/mL) [20] = experiment: as above; conditions: 72 h
NK-YS (IL-2 2.5 ng/mL) [21] = experiment: as above; conditions: 72 h
NKL (IL-2 2.5 ng/mL) [22] = experiment: as above; conditions: 72 h
SNK-6 (IL-2 2.5 ng/mL) [23] = experiment: as above; conditions: 72 h
YT (IL-2 2.5 ng/mL) [24] = experiment: as above; conditions: 72 h
[25] = tested on: normal primary NK cells, pool 1 (3 donors) (IL-2 2.5 ng/mL); experiment: as above; conditions: 72 h
[26] = tested on: normal primary NK cells, pool 1 (3 donors), resting (IL-2 0 ng/mL); experiment: as above; conditions: 72 h
[27] = tested on: normal primary NK cells, pool 2 (3 donors) (IL-2 2.5 ng/mL); experiment: as above; conditions: 72 h
[28] = tested on: normal primary NK cells, pool 3 (3 donors) (IL-2 2.5 ng/mL); experiment: as above; conditions: 72 h

CN(C)CCN1C(=O)c2cccc3cc(N)cc(c23)C1=O [Amonafide] (max concentration tested 10000 nM)
percent inhibition of viability [%]
Conditions	1 nM	10 nM	100 nM	1000 nM	10000 nM
DERL-7 (IL-2 2.5 ng/mL) [2]	-0.77	2.31	-12.6	19.6	101
IMC-1 (IL-2 20 ng/mL) [3]	1.06	3.1	5.35	15.8	100
KAI3 (IL-2 2.5 ng/mL) [4]	12.7	9.96	3.38	35.1	103
KHYG-1 (IL-2 2.5 ng/mL) [5]	6.52	2.23	12.9	14.8	103
NK-92 (IL-2 2.5 ng/mL) [6]	17.3	3.38	20.4	29.9	103
NK-YS (IL-2 2.5 ng/mL) [7]	2.33	5.61	10.8	30.8	102
NKL (IL-2 2.5 ng/mL) [8]	-9.44	0.79	-4.03	33.1	89.8
SNK-6 (IL-2 2.5 ng/mL) [9]	21.2	8.85	20.2	23.6	99.5
YT (IL-2 2.5 ng/mL) [10]	3.19	6.52	7.92	11.9	104
[1]	3.02	8.13	5.46	27.6	101
[11]	-3.82	-10.6	-8.88	-6.27	97.5
[12]	6.85	-15.8	-2.6	9.89	89.3
[13]	-8.57	-3.21	0.92	6.12	95
[14]	5.44	-1.16	1.98	8.95	98.1

Conditions	drug sensitivity score
DERL-7 (IL-2 2.5 ng/mL) [16]	8.69
IMC-1 (IL-2 20 ng/mL) [17]	8.17
KAI3 (IL-2 2.5 ng/mL) [18]	10.4
KHYG-1 (IL-2 2.5 ng/mL) [19]	8.07
NK-92 (IL-2 2.5 ng/mL) [20]	9.91
NK-YS (IL-2 2.5 ng/mL) [21]	10
NKL (IL-2 2.5 ng/mL) [22]	9.52
SNK-6 (IL-2 2.5 ng/mL) [23]	8.74
YT (IL-2 2.5 ng/mL) [24]	7.63
[15]	9.65
[25]	4.95
[26]	6.59
[27]	6.19
[28]	6.87
